Reference: US12606566B2, “Substituted cyclopenta[4,5]pyrrolo[1,2-a]pyrazines as bruton's tyrosine kinase inhibitors” (Shanghai Synergy Pharmaceutical Sciences Co., Ltd., priority 2020, dated 2026)

Columns and labels:
BTK kinase = BTK kinase (Homo sapiens, UniProt Q06187); assay: BTK kinase inhibitory activity, mobility shift method; format: biochemical; conditions: compound co-incubated with the enzyme for 30 minutes
Description: The BTK kinase inhibitory activity of the compound was determined using a mobility shift method with the reaction system (kinase solution, ATP, kinase substrate2). The compound was co-incubated with the enzyme for 30 minutes, and then the conversion rate was read using the Caliper EZ reader. The compound inhibition rate was determined using the calculation formula and the data was fitted using Graphpad to derive the IC50 value for the compounds of this application.

[1] = system: tumour cells (A20 5E6 cells); assay: Inhibitory effect on tumour cell proliferation (CCK8); format: cell-based; conditions: CCK8 absorbance, read-out: Inhibitory effect of the compound on cell proliferation IC50
Description: This experiment was to determine the effect of the compound on cell proliferation.
To determine the inhibitory effect of the compound on the proliferation of tumour cells, tumour cells (A20 5E6 cells) were cultured to a certain amount and seeded into 96-well plates. […] The absorbance value was measured after the addition of CCK8 and 2 h incubation to determine the inhibitory effect of the compound on cell proliferation. The IC50 value of the compound was obtained by data fitted with Graphpad.

Chain of BTK kinase (Q06187 whole entry): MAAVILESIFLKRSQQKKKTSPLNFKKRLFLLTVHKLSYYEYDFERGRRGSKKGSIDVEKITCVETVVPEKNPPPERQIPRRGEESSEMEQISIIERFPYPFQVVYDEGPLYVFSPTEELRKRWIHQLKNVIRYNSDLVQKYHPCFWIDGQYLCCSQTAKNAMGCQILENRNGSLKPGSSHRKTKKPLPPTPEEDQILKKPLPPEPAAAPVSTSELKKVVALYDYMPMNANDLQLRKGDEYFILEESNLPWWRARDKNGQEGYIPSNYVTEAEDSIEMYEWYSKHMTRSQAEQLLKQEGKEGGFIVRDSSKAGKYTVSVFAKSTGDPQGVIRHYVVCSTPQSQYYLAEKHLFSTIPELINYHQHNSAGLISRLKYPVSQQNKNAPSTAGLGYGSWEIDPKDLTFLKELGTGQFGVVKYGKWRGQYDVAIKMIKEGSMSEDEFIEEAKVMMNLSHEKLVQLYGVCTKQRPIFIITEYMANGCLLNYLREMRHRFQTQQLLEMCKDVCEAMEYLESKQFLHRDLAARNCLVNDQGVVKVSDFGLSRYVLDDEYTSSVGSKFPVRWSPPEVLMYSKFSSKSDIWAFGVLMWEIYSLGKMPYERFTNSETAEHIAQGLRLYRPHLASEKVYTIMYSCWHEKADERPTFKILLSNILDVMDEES

Row | Structure (SMILES) | IC50 (BTK kinase) [nM] | IC50 [1] [nM]
1 | C[C@H]1CN(C2COC2)CCN1c1ccc(Nc2cc(-c3cc(C#N)cc(N4CCn5c(cc6c5CC(C)(C)C6)C4=O)c3CO)cn(C)c2=O)nc1 [Example H05, (S)-3-(7,7-dimethyl-1-oxo-1,3,4,6,7,8-hexahydro-2H-cyclopenta [4,5]pyrrolo[1,2-a]pyrazin-2-yl)-4-(hydroxymethyl)-5-(1-methyl-5-((5-(2-methyl-4-(oxetan-3-yl)piperazin-1-yl)pyridin-2-yl)amino)-6-oxo-1,6-dihydropyridin-3-yl) benzonitrile] | 0.69 | 23
2 | CC1(C)Cc2cc3n(c2C1)CCN(c1nccc(-c2cc(Nc4ccc(N5CCN(C6COC6)CC5)cn4)c4occc4n2)c1CO)C3=O [Example H09, 2-(3-(hydroxymethyl)-4-(7-((5-(4-(oxetan-3-yl)piperazin-1-yl)pyridin-2-yl)amino)furo[3,2-b]pyridin-5-yl)pyridin-2-yl)-7,7-dimethyl-3,4,7,8-tetrahydro-2H-cyclopenta[4,5]pyrrolo[1,2-a]pyrazin-1(6H)-one] | 0.71 | 31
3 | C[C@H]1CN(C2COC2)CCN1c1ccc(Nc2cc(-c3ccc(C#N)c(N4CCn5c(cc6c5CC(C)(C)C6)C4=O)c3CO)cn(C)c2=O)nc1 [Example H06, (S)-2-(7,7-dimethyl-1-oxo-1,3,4,6,7,8-hexahydro-2H-cyclopenta [4,5]pyrrolo[1,2-a]pyrazin-2-yl)-3-(hydroxymethyl)-4-(1-methyl-5-((5-(2-methyl-4-(oxetan-3-yl)piperazin-1-yl)pyridin-2-yl)amino)-6-oxo-1,6-dihydropyridin-3-yl) benzonitrile] | 0.41 | 31
4 | Cn1cc(-c2ccnc(N3CCn4c5c(c(F)c4C3=O)CC(C)(C)C5)c2CO)cc(Nc2ccc(N3CCN(C4COC4)CC3)cn2)c1=O [Example H10, 9-fluoro-2-(3′-(hydroxymethyl)-1-methyl-5-((5-(4-(oxetan-3-yl)piperazin-1-yl)pyridin-2-yl)amino)-6-oxo-1,6-dihydro-[3,4′-bipyridin]-2′-yl)-7,7-dimethyl-3,4,7,8-tetrahydro-2H-cyclopenta[4,5]pyrrolo[1,2-a]pyrazin-1(6H)-one] | 0.21 | 21

Other lines, results leading:

Row | IC50 (BTK kinase) [nM] | IC50 [1] [nM] | Structure (SMILES)
5 | 0.17 | 47 | Cn1cc(-c2ccnc(N3CCn4c5c(c(F)c4C3=O)CC(C)(C)C5)c2CO)cc(Nc2ccc(N3CCN(C4COC4)CC3)nc2)c1=O [Example H16, 9-fluoro-2-(3′-(hydroxymethyl)-1-methyl-5-((6-(4-(oxetan-3-yl)piperazin-1-yl)pyridin-3-yl)amino)-6-oxo-1,6-dihydro-[3,4′-bipyridin]-2′-yl)-7,7-dimethyl-3,4,7,8-tetrahydro-2H-cyclopenta[4,5]pyrrolo[1,2-a]pyrazin-1(6H)-one]
6 | 0.68 | 23 | Cn1cc(-c2ccnc(N3CCn4c5c(c(F)c4C3=O)CC(C)(C)C5)c2CO)cc(Nc2ccc(N3CCN(C4COC4)CC3)cc2)c1=O [Example H15, 9-fluoro-2-(3′-(hydroxymethyl)-1-methyl-5-((4-(4-(oxetan-3-yl)piperazin-1-yl)phenyl)amino)-6-oxo-1,6-dihydro-[3,4′-bipyridin]-2′-yl)-7,7-dimethyl-3,4,7,8-tetrahydro-2H-cyclopenta[4,5]pyrrolo[1,2-a]pyrazin-1(6H)-one]
